Literature values, collected in patent publication EP0514015A1, “Control of sex differentiation in fish” (MERCK & CO. INC., priority 1991, dated 1992).

Legend:
[1] = test system: Oreochromis aureus; conditions: tilapia, broad range of doses, fed to 3 to 5-day old fry for a period of 22 days
[2] = test system: Cyprinus carpio; conditions: carp, oral administration at 50ppm in feed from weeks 6 through 11 after hatching

Row | Structure (SMILES) | sex-reversing [1] | phenotypic males [2]
1 | C#C[C@]1(O)CC[C@H]2[C@@H]3CCC4=CC(=O)CC[C@]4(C)[C@H]3CC[C@@]21C [17-alpha-ethynyltestosterone] | effective | –
2 | C[C@]12CCC(=O)C=C1CC[C@@H]1[C@@H]2CC[C@@]2(C)[C@H]1CC[C@]2(C)O [17-alpha-methyltestosterone] | effective | greater than 90%
